# Reference: US10920198B2, “Delta133p53beta and delta133p53gamma isoforms are biomarkers of cancer stem cells” (Centre National de la Recherche Scientifique (CNRS), priority 2015, dated 2021)
# Tests used:
# Type in all cases: cell-based, human
# MCF-7 cells [1] = test: Mammosphere formation in MCF-7 cells; conditions: MCF-7 cells after transduction, compared to control cells
# Procedure: For mammosphere formation, 1000 cells/ml (500 cells/well) were plated in Ultra Low Cluster Plate, 24-well, Flat Bottom (Corning Inc) with MammoCult™ Medium enriched with MammoCult™ Proliferation Supplements, hydrocortisone and heparin (Stem Cell Technologies) and cultured for 15 days. For all mammosphere assays, at least three independent experiments for each condition were carried out and repeated 8-12 times. For self-renewal experiments, transfected cells were subjected to a first cycle of mammosphere formation. Upon 15 days of culture the created mammospheres were dissociated and cells were re-plated in identical conditions as for the first plating.
# [2] = test system: c-Myc, Sox 2, Oct 3/4 and Nanog; test: Expression of pluripotency/reprogramming factors in MCF-7 cells (RT-qPCR, western blot); conditions: MCF-7 cells after transduction; mRNA and/or protein
# From the text: (§1) The following antibodies were used for immunoblotting: anti-c-Myc (9E10 mouse hybridoma clone), -Nanog (sc-81961, Santa Cruz Biotechnology), -Oct 3/4 (sc-8630, Santa Cruz Biotechnology), -Sox 2 (sc-17320, Santa Cruz Biotechnology), -p53 (DO-1; sc-126 Santa Cruz Biotechnology), -p53 Sapu (Vojtesek et al. 1995), -α-tubulin (clone DM1A, Sigma-Aldrich), -β-actin (clone AC-74 Sigma-Aldrich), -p21 (sc-397 Santa Cruz Biotechnology) and -Flag (clone M2; Sigma-Aldrich). Secondary HRP-conjugated antibodies were from GE Healthcare. For luminescence quantification, cells were serially diluted and incubated with 0.5 mM D-luciferin (Sigma). Luminescence was quantified with a Polarstar Omega instrument (BMG LABTECH).
# Total RNA was extracted (Qiagen) and reverse transcription (RT) was performed with 1-5 μg of total RNA using the SuperScript® III Reverse Transcriptase (Life Technologies) at 50° C. Levels of different mRNAs were quantified by real-time qPCR on a LightCycler480 apparatus (Roche). Briefly, 20 ng cDNA was amplified using 0.168 μM of each primer, 0.2 μM of probe (Table 4) and 1× LightCycler® 480 Probes Master Mix (Roche) for the p53 isoforms, or commercially available primers (Qiagen) and 1× LightCycler® 480 Sybr Green Master Mix (Roche) for the other genes. Data were normalized to the internal standard TBP. The different primers used and their corresponding sequences have been previously described (Bourdon et al., 2005). For each single-well amplification reaction, a threshold cycle (Ct) was calculated by using the LightCycler480 program (Roche) in the exponential phase of amplification. Relative changes in gene expression were determined using the 2ΔΔCt method and reported relative to a control. All quantification studies were performed with at least three independent experiments, repeated twice, for each condition. Data are presented as the arithmetic mean±SEM.
# MCF-7 cells [3] = test: Flow cytometry of CD44/CD24 double labeling in MCF-7 cells; conditions: MCF-7 cells after transduction
# Procedure: Single cell suspensions were labeled on ice with CD24-FITC, CD44-PE and their respective isotype controls (BioLegend) at the dilutions indicated by the manufacturer in Phosphate Buffered Saline (PBS) with 10% FBS for 30 min. Cells were then washed once with PBS and re-suspended in PBS/10% FBS. All samples were analyzed on a CyAn analyzer ([…] Coulter, Inc) using Sytox Blue (Life Technologies) to monitor cell viability.
# [4] = test system: Δ133p53 (α, β and γ) isoforms; test: Expression of Δ133p53 isoforms in MCF-7 cells (RT-qPCR, western blot); conditions: MCF-7 cells after transduction; RT-qPCR
# From the text: as §1
# Total RNA was extracted (Qiagen) and reverse transcription (RT) was performed with 1-5 μg of total RNA using the SuperScript® III Reverse Transcriptase (Life Technologies) at 50° C. Levels of different mRNAs were quantified by real-time qPCR on a LightCycler480 apparatus (Roche). […] For each single-well amplification reaction, a threshold cycle (Ct) was calculated by using the LightCycler480 program (Roche) in the exponential phase of amplification. Relative changes in gene expression were determined using the 2ΔΔCt method and reported relative to a control. All quantification studies were performed with at least three independent experiments, repeated twice, for each condition. […]
Molecule,mammosphere formation (MCF-7 cells [1]),c-Myc expression [2],"expression of Oct 3/4, Nanog and Sox 2 [2]",proportion of CD44+/CD24− cells (MCF-7 cells [3]),expression of the Δ133 isoforms [4]
"Sh1: shRNA, 5′-GACTCCAGTGGTAATCTAC-3′ (SEQ ID NO: 13); knocks down all p53 isoforms (target site or template, no part of the molecule; short hairpin RNA, only the targeted sequence is given, further chemistry not given here)",significant reduction,no effect,no effect,,
"Sh2: shRNA, 5′-GTCCAGATGAAGCTCCCAGAA-3′ (SEQ ID NO: 18); targets the long TAp53 and Δ40p53 isoforms (target site or template, no part of the molecule; short hairpin RNA, only the targeted sequence is given, further chemistry not given here)",no effect,but not of c-Myc,increased expression,not affected,increased
"Sh4: shRNA, 5′-CTTGTGCCCTGACTTTCAA-3′ (SEQ ID NO: 15); targets the 5′ UTR of the Δ133 isoforms (α, β and γ) (target site or template, no part of the molecule; short hairpin RNA, only the targeted sequence is given, further chemistry not given here)",significantly reduced,not affected,significantly down-regulated,,
"Sh5: shRNA, 5′-GGACCAGACCAGCTTTCA-3′ (SEQ ID NO: 16); targets the 3′ end of the β isoforms (target site or template, no part of the molecule; short hairpin RNA, only the targeted sequence is given, further chemistry not given here)",significantly reduced,,,,
"Sh6: shRNA, 5′-GTGAGCGCTTCGAGATGTT-3′ (SEQ ID NO: 19); targets the 3′ end of the α isoforms (target site or template, no part of the molecule; short hairpin RNA, only the targeted sequence is given, further chemistry not given here)",did not affect,,,,
"Δ133p53γ: human p53 isoform (SEQ ID NO: 3), overexpressed from pMSCVhyg retroviral vector (protein, listed as Homo sapiens, SITE (1)..(214) Homo sapiens tumor protein p53, isoform delta133p53gamma (Genbank NP_001119589.1)) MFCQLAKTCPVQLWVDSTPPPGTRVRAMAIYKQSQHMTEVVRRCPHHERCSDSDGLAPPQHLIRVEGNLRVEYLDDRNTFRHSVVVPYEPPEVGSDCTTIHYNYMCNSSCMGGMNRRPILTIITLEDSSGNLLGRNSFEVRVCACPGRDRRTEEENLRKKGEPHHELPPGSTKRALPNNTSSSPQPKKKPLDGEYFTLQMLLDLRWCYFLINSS",milder effect,,,,
